What was measured:
[1] = system: VSMCs; test: Transwell insert migration assay; assay type: cell-based, human; settings: 12-h incubation, 10^−7 M; control 48.4%
Experimental: VSMCs (75,000 cells/200 μL) were suspended in M231 containing 1% charcoal striped FBS and either 0.1% ethanol (vehicle control) or the corresponding steroids and seeded onto insert wells (transwell filter with 12-μm pores; EMD Millipore). The inserts were then placed in 24-well plates containing 500 μL M231 with 1% charcoal striped FBS. After 12 h, cells remaining on the upper surface of the filter were removed with a cotton swab. Migrated cells were trypsinized, centrifuged, and resuspended in 200 μL of M231 medium. The cell suspensions were mixed with 200 μL 10% ethanol containing 0.4% Trypan blue dye and the live cell number was counted by Countess Automated Cell Counter (Invitrogen). See further details in SI Materials and Methods.
Cultured VSMCs were grown in T-75 cell culture flasks in M231 (Life Technologies) with smooth muscle growth supplement (Life Technologies) with 100 U/mL penicillin, 100 μg/mL streptomycin, 0.25 μg/mL fungizone. Confluent VSMCs were washed twice with 1×PBS to remove residual serum, and then trypsinized, resuspended (75,000 cells per 200 μL per well) in M231 with 1% charcoal striped FBS with 0.1% ethanol (vehicle, control), 10^−7 M MPA (Sigma-Aldrich), 10^−7 M ETO (Organon), or 10^−7 M P4 (Sigma-Aldrich)±rCCL2 (R&D Systems) and seeded on insert wells (transwell filter with 12-μm pores; EMD Millipore), which were then placed in 24-well plates containing 500 μL M231 with 1% charcoal striped FBS. After 12 h, cells remaining on the upper surface of the filter were removed with a cotton swab. Migrated cells attached to the lower surface of each insert or to the surface of lower wells were collected by trypsinization, followed by centrifugation and resuspension in 200 μL of M231 medium. The cell suspensions were mixed with 200 μL 10% ethanol containing 0.4% Trypan blue dye (selectively stains only dead cells blue, whereas live cells with intact cell membranes remain unstained) for 5 min. A mixture of 100 μL M231 and 100 μL 10% ethanol containing 0.4% Trypan blue dye was used as a negative control. To detect live cell numbers, 10 μL of final cell/Trypan blue dye suspension from each treatment condition was pipetted into Countess Cell Counting Chamber Slide and counted by using Countess Automated Cell Counter (Invitrogen). The counting procedure was performed in duplicate.

[2] = system: VSMCs; test: Whole genome microarray analysis (Illumina HumanHT-12 v4) of cultured VSMCs treated with progestins; assay type: cell-based, human; settings: VSMCs treated by ETO
Excerpt: Cultured VSMCs (n=3) treated with control medium or medium containing medroxyprogesterone acetate (MPA, 10^−7 M), or etonogestrel (ETO, 10^−7 M) were processed for whole genome analyses using Illumina Human microarray kit. After qRT-PCR confirmation of several up and down regulated genes from microarray data, Ingenuity Pathway Analysis (IPA) determined relevant upstream signaling of LAPC altered gene expression. To investigate the role of genes and relevant signaling molecules identified by IPA, VSMCs (n=3) treated with MPA or ETO±1 or 10 ng/ml recombinant CCL2 (rCCL2)±STAT1 inhibitor, 5′-methyl-thioadenosine (MTA, 100 μM) were analyzed by BrdU incorporation proliferation, TUNEL based ELISA apoptosis and Transwell insert migration assays.
VSMCs were thawed and cultured in medium 231 (M231; Life Technologies) with smooth muscle growth supplement (5% FBS; 2 ng/mL human basic fibroblast growth factor, 0.5 ng/mL human epidermal growth factor, 5 ng/mL heparin, 0.2 μg/mL insulin and 5 μg/mL BSA; Life Technologies) with 100 U/mL penicillin, 100 μg/mL streptomycin, 0.25 μg/mL fungizone. Confluent VSMCs were washed twice with 1×PBS to remove residual serum, passaged in 96-well or 6-well plates and incubated in parallel in M231 with 1% charcoal striped FBS with 0.1% ethanol (vehicle, control) or 10^−7 M MPA (Sigma-Aldrich) or 10^−7 M ETO (Organon) or 10^−7 M P4 (Sigma-Aldrich) for 15 min, 6, 48, and 72 h. VSMCs were then washed with ice-cold PBS and stored at −80° C. for further RNA and protein analyses.
Total RNA was isolated using Qiagen miRNeasy Mini Kit (Qiagen) and RNeasy MinElute Cleanup Kit (Qiagen). The quality of isolated RNAs was confirmed using an Agilent 2100 Bioanalyzer. Microarray analysis was limited to those specimens in which RNA Integrity Number exceeded 8. Microarray processes were performed in the Keck Biotechnology Resource Laboratory at Yale University (New Haven, Conn.) using Illumina Human HT-12 v4 BeadChip (Illumina). Raw data without normalization were analyzed by GeneSpring GX12.5 software (Agilent Technologies-Silicon Genetics). Normalization was performed as described (35). Genes with a fold-change >1.25 and a P value<0.05 were considered differentially expressed. Ingenuity Pathway Analysis (IPA) software (Qiagen) explored molecular and biological networks related to differentially expressed genes.

## C#C[C@]1(O)CC[C@H]2[C@@H]3CCC4=CC(=O)CC[C@@H]4[C@H]3C(=C)C[C@@]21CC [ETO, etonogestrel]
[1]
  migration rate: 29.6%
[2]
  Fold-change, ABI gene family, member 3 (NESH) binding protein (ABI3BP): −1.636
  Fold-change, Actin, γ 2, smooth muscle, enteric (ACTG2): 1.514
  Fold-change, Alcohol dehydrogenase 1A (class I), alpha polypeptide (ADH1A): 1.54
  Fold-change, Bone morphogenetic protein 6 (BMP6): 1.467
  Fold-change, Chemokine (C-C motif) ligand 2 (CCL2): −2.211
  Fold-change, Claudin 11 (oligodendrocyte transmembrane protein) (CLDN11): −1.544
  Fold-change, Collagen, type VIII, α 1, transcript variant 2 (COL8A1): 1.44
  Fold-change, Complement factor B (CFB): −1.835
  Fold-change, Cysteine-rich secretory protein LCCL domain containing 2, (CRISPLD2): 1.661
  Fold-change, DNA-damage regulated autophagy modulator 1 (DRAM1): −1.535
  Fold-change, Decorin, transcript variant A2, (DCN): 1.762
  Fold-change, EF-hand domain family, member D1 (EFHD1): 1.471
  Fold-change, Endoglin (Osler-Rendu-Weber syndrome 1) (ENG): −1.428
  Fold-change, Filaggrin (FLG): −1.59
  Fold-change, Growth arrest-specific 6 (GAS6): 1.4661
  Fold-change, H19, imprinted maternally expressed transcript noncoding RNA (H19): 2.497
  Fold-change, Hypothetical protein FLJ40504 (FLJ40504): −1.625
  Fold-change, Indolethylamine N-methyltransferase (INMT): 1.443
  Fold-change, Intelectin 2 (ITLN2): 1.655
  Fold-change, LY6/PLAUR domain containing 1, transcript variant 1 (LYPD1): −1.447
  Fold-change, Latexin (LXN): −1.779
  Fold-change, Leptin (obesity homolog, mouse) (LEP): 1.602
  Fold-change, Mitogen-activated protein kinase kinase 2 (MAP2K2): −1.437
  Fold-change, PREDICTED: miscRNA (LOC399965): −1.534
  Fold-change, PREDICTED: similar to LYPDC1 protein (LOC100134073): −1.536
  Fold-change, PREDICTED: similar to filaggrin (LOC730833): −1.474
  Fold-change, Pleckstrin homology-like domain, family A, member 1 (PHLDA1): −1.487
  Fold-change, Potassium voltage-gated channel, shaker-related subfamily, 0 member 1, transcript variant2 (KCNAB1): −1.492
  Fold-change, Prostaglandin-endoperoxide synthase 1, transcript variant 2 (PTGS1): 1.555
  Fold-change, RAB11 family interacting protein 1 (class I), transcript variant 3, (RAB11FIP1): 1.55
  Fold-change, Retinoic acid receptor responder (tazarotene induced) 1, transcript variant 1, (RARRES1): −2.146
  Fold-change, Retinoic acid receptor responder (tazarotene induced) 1, transcript variant 2, (RARRES1): −1.809
  Fold-change, Superoxide dismutase 2, mitochondrial, transcript variant 2, (SOD2): −1.778
  Fold-change, Thioredoxin domain containing 5, transcript variant 2 (TXNDC5): 1.429
  Fold-change, Transmembrane 4 L six family member 1 (TM4SF1): −1.467
  Fold-change, Transmembrane protein 119 (TMEM119): 1.448
  Fold-change, Wingless-type MMTV integration site family, member 5A (WNT5A): 1.504
  Fold-change, cDNA FLJ20769 fis, clone COL06674 (PREDICTED: Receptor tyrosine kinase-like orphan receptor 1): 1.528
[2]; table entry 6
  Fold-change, Matrix Gla protein (MGP): 1.581
[2]; table entry 8
  Fold-change, Matrix Gla protein (MGP): 1.554

— patent US20180078615A1, “USE OF CCL2 TO INHIBIT ABNORMAL UTERINE BLEEDING” (UNIVERSITY OF SOUTH FLORIDA, priority 2015, published 2018)
